This is an account of results in patent US10928381B2, “In vitro methods of monitoring autophagy in a human cell using a photoconvertable fluorescent protein linked biomarker” (The Regents of the University of Michigan, priority 2018, dated 2021).

Structures are written as SMILES.

This assay relates to Tandem reporter (RFP-GFP-LC3) HeLa cells. Description: Tandem reporter (RFP-GFP-LC3) assay, % of RFP puncta that are GFP positive. The assay is classed as cell-based. To be noted: imaged after 12 hours. Here is the method:
FIG. 13A-E. Validation of novel autophagy inhibitors with an independent measure of autophagic flux. (FIG. 13A) Tandem reporter (RFP-GFP-LC3) HeLa cells treated with the indicated compounds and imaged after 12 hours in RFP (middle panels) GFP (bottom panels). […] Concentrations used correspond to the lowest dose resulting in the maximum degree of colocalization between GFP and RFP puncta as calculated in (B). These are: 3 nM Bafilomycin, 1 uM Quinacrine, 50 uM 245536, and 100 uM of 254522, 45808, 234794, and 237373. (Scale bar: 50 μm) (FIG. 13B) The percentage of RFP positive puncta that are also GFP positive in tandem reporter HeLa cells was analyzed using Cell Profiler. First GFP (1a) and RFP (1b) images of the same field of cells are uploaded into Cell Profiler. Using the GFP images, nuclei are identified (2a-green outlines) and a nuclear mask (2b) is generated. […] Cellular boundries are identified (3a-purple outlines) and a cellular mask is created. […] Only puncta within this mask will be evaluated in subsequent steps. […] (FIG. 13D) Tandem reporter HeLa cells were imaged once prior to drug treatment and then treated with the lowest dose that produced the maximum response as calculated in (FIG. 13C) and imaged immediately after. […] Each point is calculated by taking the mean % of (GFP+/RFP+ puncta)/(RFP+) from 8 technical replicates. […]

As for `CO/C1=C\C(C)=C\[C@@H](C)[C@@H](O)[C@@H](C)C/C(C)=C/C=C/[C@H](OC)[C@@H]([C@@H](C)[C@@H](O)[C@H](C)[C@@]2(O)C[C@@H](O)[C@H](C)[C@@H](C(C)C)O2)OC1=O` [Bafilomycin-A1, bafilomycin-A1], the “Lowest dose resulting in the maximum degree of colocalization between GFP and RFP puncta” value was determined as 3 nM.
